Measured values taken from patent publication US20240381822A1, “PLANT PART QUALITY” (Valent BioSciences LLC, priority 2023, published 2024).

Assays:
Type in all cases: in vivo
[1] = tested on: Flamin' Fury® variety Peaches; assay: Flesh browning of peaches after cold storage (Example 1); settings: for % Healthy Fruit: 1-minute dip, 5 degrees Celsius 4 weeks, 1 day room temperature, flesh browning score less than 3
Protocol: ' Fury® variety Peaches were harvested and maintained at room temperature until treatment. Peaches were divided into 9 equal sets. Each treatment type contained 15 peaches and was repeated 3 times for a total of 45 peaches per treatment. For treatment, water, (S)-abscisic acid (“S-ABA”), methyl jasmonate or a mixture of S-ABA and methyl jasmonate were applied to peaches after harvest via a 1-minute dip at the following concentrations: 1) water only; 2) 0.33 millimolar (“mM”) S-ABA; 3) 3.3 mM S-ABA; 4) 0.33 mM methyl jasmonate; 5) 3.3 mM methyl jasmonate; 6) 0.33 mM S-ABA and 0.33 mM methyl jasmonate; 7) 0.3 mM S-ABA and 3.3 mM methyl jasmonate; 8) 3.3 mM S-ABA and 0.33 mM methyl jasmonate or 9) 3.3 mM S-ABA and 3.3 mM methyl jasmonate. Each treatment includes 0.025% Latron B-1956® (available from J. R. Simplot Company) as an adjuvant. All peaches were subsequently dried for 30 minutes and then stored at 5 degrees Celsius for 4 weeks. Following cold storage all peaches were placed at room temperature for 1 day and then evaluated for flesh browning. Flesh browning was determined using a 6-point scale developed by Crisosto G. M. 2015 wherein a score of 1=no browning, 2=very slight browning in the pit cavity, 3=slight browning in the pit cavity and surrounding tissue, 4=moderate browning on less than 50% of the flesh, 5=severe browning on 50% to 75% of the flesh and 6=extreme browning covering most of the flesh. A flesh browning score of more than 3 was determined as a “flesh browning incident” and a score of less than 3 was determined as “healthy fruit” for efficacy purposes. […] To determine if the mixtures provided unexpected results, the observed combined efficacy (“OCE”) was divided by the expected combined efficacy (“ECE”) wherein the expected ECE is calculated by the Abbott method: wherein ECE is the expected combined efficacy and in which A and B are the quality score provided by application of the single active ingredients. If the ratio between the OCE of the mixture and the ECE of the mixture is greater than 1, then greater than expected interactions are present in the mixture. (Gisi, Synergistic Interaction of Fungicides in Mixtures, The American Phytopathological Society, 86:11, 1273-1279,1996).

[2] = tested on: Summer Flame 34 variety Peaches; assay: Flesh browning of waxed peaches after cold storage (Example 2); settings: for Fold Change from Control (Flesh Browning Average Score): 1.2 mM single active; for Flesh Browning Average Score: 1.2 mM single active in Prima Fresh 55EU wax, 5 degrees Celsius 25 days, 3 day room temperature, 6-point scale
Protocol: Flesh browning was determined using a 6-point scale developed by Crisosto G. M. 2015 wherein a score of 1=no browning, 2=very slight browning in the pit cavity, 3=slight browning in the pit cavity and surrounding tissue, 4=moderate browning on less than 50% of the flesh, 5=severe browning on 50% to 75% of the flesh and 6=extreme browning covering most of the flesh. A flesh browning score of more than 3 was determined as a “flesh browning incident” and a score of less than 3 was determined as “healthy fruit” for efficacy purposes.
(§1) Summer Flame 34 variety Peaches were harvested and maintained at room temperature until treatment. Peaches were divided into 4 equal sets. Each treatment type contained 32 peaches and was repeated 3 times for a total of 96 peaches per treatment. For treatment, water, (S)-abscisic acid (“S-ABA”), methyl jasmonate or a mixture of S-ABA and methyl jasmonate were mixed in Prima Fresh 55EU wax and applied in a semicommercial mini packing line to simulate commercial packing conditions. Active ingredients were mixed into the wax at the following concentrations: 1) wax only; 2) 1.2 mM S-ABA; 3) 1.2 mM methyl jasmonate; 4) 1.2 mM S-ABA and 1.2 mM methyl jasmonate. All peaches were immediately stored at 5 degrees Celsius for 25 days. Following cold storage all peaches were placed at room temperature for 3 day and then evaluated for flesh browning as described in Example 1, above and also for flesh mealiness.
(§2) Determination of unexpected results was calculated using the method described in Example 1, above.

[3] = tested on: Summer Flame 34 variety Peaches; assay: Flesh mealiness of waxed peaches after cold storage (Example 2); settings: for Fold Change from Control (Flesh Mealiness Average Score): 1.2 mM single active; for Flesh Mealiness Average Score: 1.2 mM single active in Prima Fresh 55EU wax, 5 degrees Celsius 25 days, 3 day room temperature, 3-point scale
Source text: as §1
Flesh mealiness was determined using a 3-point scale developed by Crisosto G. M. 2015 wherein a score of 1=juicy fruit, 2=moderately mealy fruit (small amount of juice released upon squeezing) and 3=severely mealy fruit (almost no juice released upon squeezing). A flesh mealiness score of 2 or more was determined as a “flesh mealiness incident” and a score of 1 was determined as “healthy fruit” for efficacy purposes.
as §2

Cucumbers [4] = assay: Electrolyte leakage of cucumbers after cold storage (Example 3); settings: for % Electrolyte Leakage: 2-minute dip, 5 degrees Celsius 11.5 days, then room temperature
Source text: Cucumbers were harvested and waxed and maintained at room temperature until treatment. Cucumbers were divided into 9 equal sets. Each treatment type contained 11-13 cucumbers peaches and was repeated 3 times for a total of 33-39 peaches per treatment. For treatment, water, (S)-abscisic acid (“S-ABA”), methyl jasmonate or a mixture of S-ABA and methyl jasmonate were applied to cucumber after harvest via a 2-minute dip at the following concentrations: 1) water only; 2) 0.3 millimolar (“mM”) S-ABA; 3) 3 mM S-ABA; 4) 0.3 mM methyl jasmonate; 5) 3 mM methyl jasmonate; 6) 0.3 mM S-ABA and 0.3 mM methyl jasmonate; 7) 0.3 mM S-ABA and 3 mM methyl jasmonate; 8) 3 mM S-ABA and 0.3 mM methyl jasmonate or 9) 3 mM S-ABA and 3 mM methyl jasmonate. Each treatment includes 0.025% Latron B-1956® (available from J. R. Simplot Company) as an adjuvant. All cucumbers were subsequently dried for 30 minutes and then stored at 5 degrees Celsius for 11.5 days. Following cold storage all cucumbers were placed at room temperature for 4 days and then evaluated for electrolyte leakage and decay on each of days 1, 2,3 and 4. For electrolyte leakage cucumbers were sliced and a 1-centimeter core sample (i.e. a disc) was taken from each slice. 10 discs were placed in each 50-milliliter centrifuge tube containing 30 milliliter of deionized water and shaken for 25 minutes. Electroconductivity was measured at time zero as soon as the treatments were processed (CO). Electroconductivity was measured again after the discs were shaken in the centrifuge tubes (C1). Finally, electroconductivity was measured after boiling the cucumber sample for 20 minutes and then cooled rapidly (C2). % electrolyte leakage was calculated by the following formula (C1−C0)/C2. Determination of unexpected results was calculated using the method described in Example 1. above.

Cucumbers [5] = assay: Decay evaluation of cucumbers after cold storage (Example 3); settings: for % Healthy Fruit (decay): 2-minute dip, 5 degrees Celsius 11.5 days, then room temperature, 100% minus % disease incidence
Source text: Cucumbers were harvested and waxed and maintained at room temperature until treatment. Cucumbers were divided into 9 equal sets. Each treatment type contained 11-13 cucumbers peaches and was repeated 3 times for a total of 33-39 peaches per treatment. For treatment, water, (S)-abscisic acid (“S-ABA”), methyl jasmonate or a mixture of S-ABA and methyl jasmonate were applied to cucumber after harvest via a 2-minute dip at the following concentrations: 1) water only; 2) 0.3 millimolar (“mM”) S-ABA; 3) 3 mM S-ABA; 4) 0.3 mM methyl jasmonate; 5) 3 mM methyl jasmonate; 6) 0.3 mM S-ABA and 0.3 mM methyl jasmonate; 7) 0.3 mM S-ABA and 3 mM methyl jasmonate; 8) 3 mM S-ABA and 0.3 mM methyl jasmonate or 9) 3 mM S-ABA and 3 mM methyl jasmonate. Each treatment includes 0.025% Latron B-1956® (available from J. R. Simplot Company) as an adjuvant. All cucumbers were subsequently dried for 30 minutes and then stored at 5 degrees Celsius for 11.5 days. Following cold storage all cucumbers were placed at room temperature for 4 days and then evaluated for electrolyte leakage and decay on each of days 1, 2,3 and 4. Decay evaluation was performed by counting the number of cucumbers displaying decay and calculating the percentage of affected cucumbers. Decay severity was evaluated using a 1-3 score system, wherein 1=low, 2=medium and 3=high. Healthy fruit was calculated by subtracting the % of disease incidence from 100%. Determination of unexpected results was calculated using the method described in Example 1. above.

Structure (SMILES) | Fold Change from Control (% Healthy Fruit) ([1]; 0.33 mM single active) | % Healthy Fruit ([1]; 0.33 mM single active) | Fold Change from Control (% Healthy Fruit) ([1]; 3.3 mM single active) | % Healthy Fruit ([1]; 3.3 mM single active) | Fold Change from Control (Flesh Browning Average Score) [2] | Flesh Browning Average Score [2] | Fold Change from Control (Flesh Mealiness Average Score) [3] | Flesh Mealiness Average Score [3] | Fold Change from Control (% Electrolyte Leakage) (Cucumbers [4]; 0.3 mM single active) | % Electrolyte Leakage (Cucumbers [4]; 0.3 mM single active) | Fold Change from Control (% Electrolyte Leakage) (Cucumbers [4]; 3 mM single active) | % Electrolyte Leakage (Cucumbers [4]; 3 mM single active) | Fold Change from Control (% Healthy Fruit, decay) (Cucumbers [5]; 0.3 mM single active) | % Healthy Fruit (decay) (Cucumbers [5]; 0.3 mM single active) | Fold Change from Control (% Healthy Fruit, decay) (Cucumbers [5]; 3 mM single active) | % Healthy Fruit (decay) (Cucumbers [5]; 3 mM single active)
CC/C=C\CC1C(=O)CCC1CC(=O)OC (centres unmarked) [MJ, methyl jasmonate] | 1.18 | 28.0% | 2.26 | 41.8% | −0.09 | 2.79 | −0.10 | 1.50 | −0.06 | 60.3% | −0.07 | 59.7% | −0.22 | 61.5% | −0.09 | 71.4%
CC1=CC(=O)CC(C)(C)[C@@]1(O)/C=C/C(C)=C/C(=O)O [S-ABA, (S)-abscisic acid] | 0.35 | 17.3% | −0.33 | 8.6% | −0.016 | 3.03 | −0.006 | 1.66 | −0.05 | 61.3% | −0.05 | 61.3% | 0.05 | 82.1% | −0.29 | 55.7%
